Measurements reported in ChEMBL document CHEMBL1201862, “PubChem BioAssay data set” (2004).
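Values below derive from 48-hour exposures of cells grown in 96-well plates, with endpoints linearly interpolated between the two concentrations bracketing the appropriate inhibition level. Abbreviation: GI50, concentration required for 50% inhibition of growth.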 Active and inactive are the calls of the source. Rule as the data show it: active = GI50 up to about 1.1 µM and inactive = higher.

How the values were obtained:
Assay in all cases: NCI anticancer screen, dose series, 48 h
SR = system: SR
NCI-H23 = system: NCI-H23
UACC-257 = system: UACC-257
COLO 205 = system: COLO 205
DMS-114 = system: DMS-114
UO-31 = system: UO-31
SN12C = system: SN12C
OVCAR-4 = system: OVCAR-4
SNB-78 = system: SNB-78
786-0 = system: 786-0
NCI-H226 = system: NCI-H226
M14 = system: M14
HCT-15 = system: HCT-15
SK-MEL-2 = system: SK-MEL-2
LOX IMVI = system: LOX IMVI
EKVX = system: EKVX
SW-620 = system: SW-620
UACC-62 = system: UACC-62
DLD-1 = system: DLD-1
SNB-75 = system: SNB-75
HCT-116 = system: HCT-116
KM12 = system: KM12
CCRF-CEM = system: CCRF-CEM
SK-MEL-5 = system: SK-MEL-5
NCI-H522 = system: NCI-H522
SF-295 = system: SF-295
TK-10 = system: TK-10
Malme-3M = system: Malme-3M
HOP-92 = system: HOP-92
A498 = system: A498
HL-60 = system: HL-60
SF-539 = system: SF-539
U-251 = system: U-251
SNB-19 = system: SNB-19
K562 = system: K562
NCI-H460 = system: NCI-H460
A549 = system: A549
OVCAR-8 = system: OVCAR-8
SK-OV-3 = system: SK-OV-3
DMS-273 = system: DMS-273
ACHN = system: ACHN
RXF 393 = system: RXF 393
SF-268 = system: SF-268
SK-MEL-28 = system: SK-MEL-28
MOLT-4 = system: MOLT-4
RPMI-8226 = system: RPMI-8226
IGROV-1 = system: IGROV-1
OVCAR-3 = system: OVCAR-3
M19-MEL = system: M19-MEL
HOP-62 = system: HOP-62
HCC 2998 = system: HCC 2998
OVCAR-5 = system: OVCAR-5
HT-29 = system: HT-29
LXFL 529 = system: LXFL 529
KM-20L2 = system: KM-20L2

Compound: O=[N+]([O-])c1ccc2occ3c2c1CCC3
- GI50 (SR): > 100 µM (inactive)
- GI50 (NCI-H23): > 100 µM (inactive)
- GI50 (UACC-257): > 100 µM (inactive)
- GI50 (COLO 205): > 100 µM (inactive)
- GI50 (DMS-114): > 100 µM (inactive)
- GI50 (UO-31): 71.6 µM (inactive)
- GI50 (SN12C): > 100 µM (inactive)
- GI50 (OVCAR-4): > 100 µM (inactive)
- GI50 (SNB-78): > 100 µM (inactive)
- GI50 (786-0): > 100 µM (inactive)
- GI50 (NCI-H226): 40 µM (inactive)
- GI50 (M14): > 100 µM (inactive)
- GI50 (HCT-15): > 100 µM
- GI50 (SK-MEL-2): > 100 µM (inactive)
- GI50 (LOX IMVI): > 100 µM (inactive)
- GI50 (EKVX): > 100 µM (inactive)
- GI50 (SW-620): > 100 µM (inactive)
- GI50 (UACC-62): > 100 µM (inactive)
- GI50 (DLD-1): > 100 µM (inactive)
- GI50 (SNB-75): 24.4 µM (inactive)
- GI50 (HCT-116): > 100 µM (inactive)
- GI50 (KM12): > 100 µM (inactive)
- GI50 (CCRF-CEM): > 100 µM (inactive)
- GI50 (SK-MEL-5): > 100 µM (inactive)
- GI50 (NCI-H522): > 100 µM (inactive)
- GI50 (SF-295): > 100 µM (inactive)
- GI50 (TK-10): > 100 µM (inactive)
- GI50 (Malme-3M): > 100 µM (inactive)
- GI50 (HOP-92): 35.2 µM (inactive)
- GI50 (A498): > 100 µM (inactive)
- GI50 (HL-60): > 100 µM (inactive)
- GI50 (SF-539): > 100 µM (inactive)
- GI50 (U-251): > 100 µM (inactive)
- GI50 (SNB-19): > 100 µM (inactive)
- GI50 (K562): > 100 µM (inactive)
- GI50 (NCI-H460): > 100 µM (inactive)
- GI50 (A549): > 100 µM (inactive)
- GI50 (OVCAR-8): > 100 µM (inactive)
- GI50 (SK-OV-3): > 100 µM (inactive)
- GI50 (DMS-273): > 100 µM (inactive)
- GI50 (ACHN): > 100 µM (inactive)
- GI50 (RXF 393): > 100 µM (inactive)
- GI50 (SF-268): > 100 µM (inactive)
- GI50 (SK-MEL-28): > 100 µM (inactive)
- GI50 (MOLT-4): > 100 µM (inactive)
- GI50 (RPMI-8226): > 100 µM (inactive)
- GI50 (IGROV-1): > 100 µM (inactive)
- GI50 (OVCAR-3): > 100 µM (inactive)
- GI50 (M19-MEL): > 100 µM (inactive)
- GI50 (HOP-62): > 100 µM (inactive)
- GI50 (HCC 2998): > 100 µM (inactive)
- GI50 (OVCAR-5): 86.1 µM (inactive)
- GI50 (HT-29): > 100 µM (inactive)
- GI50 (LXFL 529): > 100 µM (inactive)

Compound: CCO[C@@H]1OC(=O)[C@](C)(C(C)=O)[C@@H]1C
- GI50 (SR): 27.9 µM (inactive)
- GI50 (NCI-H23): 16.8 µM (inactive)
- GI50 (UACC-257): > 100 µM (inactive)
- GI50 (COLO 205): > 100 µM (inactive)
- GI50 (DMS-114): 37.2 µM (inactive)
- GI50 (UO-31): > 100 µM (inactive)
- GI50 (OVCAR-4): 71.9 µM (inactive)
- GI50 (SNB-78): 33.7 µM (inactive)
- GI50 (M14): 67 µM (inactive)
- GI50 (KM-20L2): > 100 µM (inactive)
- GI50 (SK-MEL-2): 55.2 µM (inactive)
- GI50 (UACC-62): 57.8 µM (inactive)
- GI50 (SNB-75): 0.21 µM (active)
- GI50 (KM12): > 100 µM (inactive)
- GI50 (CCRF-CEM): 14.7 µM (inactive)
- GI50 (NCI-H522): > 100 µM (inactive)
- GI50 (SF-295): 36.8 µM (inactive)
- GI50 (HOP-92): 27.5 µM (inactive)
- GI50 (A498): > 100 µM (inactive)
- GI50 (HL-60): 17.9 µM (inactive)
- GI50 (SF-539): 23.1 µM (inactive)
- GI50 (U-251): 34.4 µM (inactive)
- GI50 (SNB-19): 75.3 µM (inactive)
- GI50 (K562): 44.2 µM (inactive)
- GI50 (NCI-H460): > 100 µM (inactive)
- GI50 (SK-OV-3): 59 µM (inactive)
- GI50 (ACHN): > 100 µM (inactive)
- GI50 (RXF 393): 41.5 µM (inactive)
- GI50 (SF-268): 14.7 µM (inactive)
- GI50 (SK-MEL-28): 37.5 µM (inactive)
- GI50 (MOLT-4): 23.3 µM (inactive)
- GI50 (RPMI-8226): 18.8 µM (inactive)
- GI50 (IGROV-1): > 100 µM (inactive)
- GI50 (OVCAR-3): 29 µM (inactive)
- GI50 (M19-MEL): 58.1 µM (inactive)
- GI50 (HOP-62): 43.2 µM (inactive)
- GI50 (OVCAR-5): > 100 µM (inactive)
- GI50 (HT-29): 68.4 µM (inactive)
- GI50 (LXFL 529): 40.6 µM (inactive)
